Experiment [1] deals with T1, rat TGR23-1 expressing CHO cells (Rattus norvegicus, UniProt P0C0L6, DEL160-160).
T1 construct: The rat TGR23-1 expressing vector was constructed by digestion of plasmid pCR2.1-rTGR23-1 with Sal I and Spe I; expressed in transfected cells; host or cells: CHO dhfr- cells, pAKKO-rTGR23-1, clone No. 34
T1 sequence (P0C0L6 with tags, fused parts or gaps DEL160-160): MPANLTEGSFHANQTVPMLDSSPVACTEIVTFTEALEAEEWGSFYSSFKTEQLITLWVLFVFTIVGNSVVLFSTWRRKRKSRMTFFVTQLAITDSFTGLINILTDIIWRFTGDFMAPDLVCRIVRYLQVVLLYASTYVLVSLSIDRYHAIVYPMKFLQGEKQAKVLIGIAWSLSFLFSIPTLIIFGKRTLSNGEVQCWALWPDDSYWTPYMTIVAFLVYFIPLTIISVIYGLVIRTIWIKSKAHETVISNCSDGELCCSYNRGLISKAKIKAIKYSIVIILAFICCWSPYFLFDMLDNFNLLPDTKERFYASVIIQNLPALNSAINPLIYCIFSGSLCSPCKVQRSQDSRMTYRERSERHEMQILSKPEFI
In words: Intracellular Ca ion concentration increasing activity using FLIPR. Type of experiment: cell-based. The method, then:
(§1) An enhancing activity of intracellular Ca^2+ release was assayed using FLIPR (Molecular Devices, Inc.). The CHO/TGR23-2 cells prepared in Example 1 and selected in Example 2 were plated on 96-well plate at 3×10^4 cells/well and cultured for 24 hours. A loading buffer was prepared by adding 1 vial of Fluo 3-AM to 10 ml of Hanks' solution (pH7.4) containing 2.5 mM Probenecid and 20 mM HEPES (hereafter, Hanks' solution (pH7.4) containing 2.5 mM Probenecid and 20 mM HEPES may be referred to as a washing buffer). The culture medium was discarded from the culture plate and 100 μl/well of the loading buffer were added to the cells. Then, the cells were incubated for 60 minutes in the incubator. After the loading buffer was removed from the culture plate and the cells were washed with the washing buffer, the plate was put in place of FLIPR. A sample was prepared by adding a sample buffer, which 2 mg/ml BSA and 1 mg/ml CHAPS were added to the washing buffer, to lyophilized product, stirring and treating by ultrasonication for 30 minutes, and transferred to 96-well sample plate. This sample plate was also put in place for assay. The enhancing activity of intracellular Ca^2+ release was measured as an increase of fluorescent intensity, which is raised by addition of the sample.
(§2) The rat TGR23-2 ligand (1-18) having various concentrations was administered in accordance with the method described in Example 5, to the CHO cells, in which rat TGR23-1 and rat TGR23-5 are expressed. Subsequently, the intracellular Ca ion concentration increasing activity was measured using FLIPR.

The target in experiment [2] is T2, rat TGR23-5 expressing CHO cells (Rattus norvegicus, UniProt P0C0L6).
T2 construct: expressed in transfected cells; host or cells: CHO dhfr- cells, pAKKO-rTGR23-5, clone No. 29
T2 sequence (P0C0L6 1-372): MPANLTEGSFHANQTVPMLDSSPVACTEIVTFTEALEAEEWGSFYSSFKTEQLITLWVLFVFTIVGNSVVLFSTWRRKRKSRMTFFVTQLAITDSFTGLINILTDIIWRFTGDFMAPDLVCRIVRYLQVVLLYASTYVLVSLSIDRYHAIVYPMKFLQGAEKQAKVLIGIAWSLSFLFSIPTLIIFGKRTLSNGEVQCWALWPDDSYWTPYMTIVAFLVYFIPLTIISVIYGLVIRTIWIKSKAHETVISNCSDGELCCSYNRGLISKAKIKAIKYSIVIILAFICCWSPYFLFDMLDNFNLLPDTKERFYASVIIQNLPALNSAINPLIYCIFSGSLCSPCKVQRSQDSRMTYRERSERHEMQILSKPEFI
The description is as above. It is filed as cell-based. The procedure: as §1, §2

Experiment [3] relates to human colon cancer cell line LS 174T. Description: Growth of carcinomas of LS 174T in nude mice. The following applies: osmotic pump 48 nmol/day for 14 days, 11th to 20th day, vs distilled water. Type of experiment: in vivo, nude mice (BALB/cAnN-nu). The method, then: Effects on the growth of carcinomas by the human TGR23-2 ligand (1-20) in nude mice of human colon cancer cell line LS 174T were investigated.
The LS 174T dissolved in PBS (phosphate buffered saline) was subcutaneously administered at the ratio of 4×10^6 cells/200 μl/mouse to left abdominal of female nude mice (BALB/cAnN-nu, six weeks old). After three hours of administration, 100 μl of the human TGR23-2 ligand (1-20) dissolved in Otsuka distilled water at the concentration of 2 mM, or Otsuka distilled water was filled in the Micro-Osmotic Pump (alza, model 1002), and further embedded under the skin in the back of mouse under anesthesia (n=10 per each group). From this day, the human TGR23-2 ligand (1-20) was continuously released for 14 days at 48 nmol/day. From the third day of administration, dimensions of the carcinoma were measured, and carcinoma volume was calculated based on the formula: (major axis)×(minor axis)^2/2.

The values below come from US7323541B2, “Polypeptide DNA thereof and use of the same” (Takeda Pharmaceutical Company Limited, priority 2001, dated 2008).

As usually defined, the EC50 is the concentration needed to bring the measured effect to its halfway point.

Where no end group is shown, it is not given here.

For “SFRNGVGSGVKKTSFRRA [rat TGR23-2 ligand (1-18), Ser-Phe-Arg-Asn-Gly-Val-Gly-Ser-Gly-Val-Lys-Lys-Thr-Ser-Phe-Arg-Arg-Ala]”, the “intracellular Ca ion concentration increasing activity” value in experiment [1] (rat TGR23-1 expressing CHO cells) and in experiment [2] (rat TGR23-5 expressing CHO cells) was “the intracellular Ca ion level increased depending on the concentration of this ligand” in each case. Also, the EC50 in experiment [1] (rat TGR23-1 expressing cells, calculated from graph FIG. 27) was 0.19 nM; in experiment [2] (rat TGR23-5 expressing cells, calculated from graph FIG. 28) it was 14 nM.

With “SFRNGVGTGMKKTSFQRAKS [human TGR23-2 ligand (1-20)]”, the “carcinoma volume of LS 174T” value in experiment [3] is reported as “has a tendency to increase”.
